# Patent US9809574B2, “Isoindoline or isoquinoline compounds, a process for their preparation and pharmaceutical compositions containing them” (LES LABORATOIRES SERVIER, priority 2013, dated 2017)
# Structures can show the parent of a compound that is named as a salt.
# Legend:
# Bcl-2 protein = Bcl-2 protein (histag-Bcl-2, UniProtKB P10415) (Homo sapiens (Human), UniProt P10415); assay: Inhibition of Bcl-2 by the fluorescence polarisation technique; type: binding; details: fluorescence polarisation test; incubation for 2 hours; read-out: IC50 (nM) Bcl-2 FP
# Source text: For partial inhibitors, the percentage fluorescence polarisation inhibition for a given concentration of the test compound is indicated.
# [1] = tested on: RS4; 11 leukaemia cell line; assay: In vitro cytotoxicity, Microculture Tetrazolium Assay (MTT); type: cell-based; details: Homo sapiens, 11 cells exposed for 48 hours
# Procedure: The cytotoxicity studies were carried out on the RS4; 11 leukaemia cell line and on H146 small Cell Lung Carcinoma cell line. The cells are distributed onto microplates and exposed to the test compounds for 48 hours. The cell viability is then quantified by a colorimetric assay, the Microculture Tetrazolium Assay (Cancer Res., 1987, 47, 939-942).
# Chain of Bcl-2 protein (P10415 whole entry): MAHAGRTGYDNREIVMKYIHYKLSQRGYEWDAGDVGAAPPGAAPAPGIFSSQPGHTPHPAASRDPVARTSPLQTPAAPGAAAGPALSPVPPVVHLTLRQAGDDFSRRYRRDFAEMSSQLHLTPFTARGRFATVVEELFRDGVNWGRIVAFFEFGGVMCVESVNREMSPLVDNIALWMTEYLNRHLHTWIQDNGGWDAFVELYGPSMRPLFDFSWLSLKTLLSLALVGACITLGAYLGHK
Structure (SMILES),IC50 (Bcl-2 protein) [nM],IC50 [1] [nM]
"Cc1c(C(=O)N(C)c2ccccc2)cc(-c2cc3c(cc2C(=O)N2Cc4ccccc4C[C@H]2C)CN(C(=O)Oc2cccc(OCCN(C)C)c2)CC3)n1C [Example 448, 3-[2-(Dimethylamino)ethoxy]phenyl 6-{1,5-dimethyl-4-[methyl(phenyl)carbamoyl]-1H-pyrrol-2-yl}-7-[(3R)-3-methyl-1,2,3,4-tetrahydroisoquinoline-2-carbonyl]-1,2,3,4-tetrahydroisoquinoline-2-carboxylate]",4,8.2
"CCN(C(=O)c1cc(-c2cc3c(cc2C(=O)N2Cc4ccccc4C[C@H]2CN2CCOCC2)CN(C(=O)Oc2ccccc2)CC3)n(C)c1C)c1ccc(O)cc1 [Example 185, Phenyl 6-{4-[ethyl(4-hydroxyphenyl)carbamoyl]-1,5-dimethyl-1H-pyrrol-2-yl}-7-[(3S)-3-(morpholin-4-ylmethyl)-1,2,3,4-tetrahydroisoquinoline-2-carbonyl]-1,2,3,4-tetrahydroisoquinoline-2-carboxylate]",3.7,4.5
"C[C@@H]1Cc2ccccc2CN1C(=O)c1cc2c(cc1-c1cc(C(=O)N(C)c3ccc(O)cc3)c3n1CCCC3)CCN(C(=O)CCc1ccc(NCCN(C)C)cc1)C2 [Example 138, 3-{2-[3-(4-{[2-(Dimethylamino)ethyl]amino}phenyl)propanoyl]-7-[(3R)-3-methyl-1,2,3,4-tetrahydroisoquinoline-2-carbonyl]-1,2,3,4-tetrahydroisoquinolin-6-yl}-N-(4-hydroxyphenyl)-N-methyl-5,6,7,8-tetrahydroindolizine-1-carboxamide]",12,114
"COc1cccc(/C=C/C(=O)N2CCc3cc(-c4cc(C(=O)N(C)c5ccc(O)cc5)c(C)n4C)c(C(=O)N4Cc5ccccc5C[C@H]4CN4CCOCC4)cc3C2)c1 [Example 136, N-(4-Hydroxyphenyl)-5-{2-[(2E)-3-(3-methoxyphenyl)prop-2-enoyl]-7-[(3S)-3-(morpholin-4-ylmethyl)-1,2,3,4-tetrahydroisoquinoline-2-carbonyl]-1,2,3,4-tetrahydroisoquinolin-6-yl}-N,1,2-trimethyl-1H-pyrrole-3-carboxamide]",6.7,24
"C[C@@H]1Cc2ccccc2CN1C(=O)c1cc2c(cc1-c1cc(C(=O)N(C)c3ccc(O)cc3)c3n1CCCC3)CCN(C(=O)Cc1ccc(CN3CCN(C)CC3)cc1)C2 [Example 113, N-(4-Hydroxyphenyl)-N-methyl-3-{7-[(3R)-3-methyl-1,2,3,4-tetrahydroisoquinoline-2-carbonyl]-2-(2-{4-[(4-methylpiperazin-1-yl)methyl]phenyl}acetyl)-1,2,3,4-tetrahydroisoquinolin-6-yl}-5,6,7,8-tetrahydroindolizine-1-carboxamide]",3.6,25
"CCC(=O)N1Cc2cc(C(=O)N3Cc4ccccc4C[C@H]3CN3CCOCC3)c(-c3cc(C(=O)N(C)c4ccc(O)cc4)c4n3CCCC4)cc2C1 [Example 11, N-(4-Hydroxyphenyl)-N-methyl-3-{6-[(3S)-3-(morpholin-4-ylmethyl)-1,2,3,4-tetrahydroisoquinoline-2-carbonyl]-2-propanoyl-2,3-dihydro-1H-isoindol-5-yl}-5,6,7,8-tetrahydroindolizine-1-carboxamide hydrochloride]",22,763
"CCc1ccc(OC(=O)N2CCc3cc(-c4cc(C(=O)N(C)c5ccc(O)cc5)c5n4CCCC5)c(C(=O)N4Cc5ccccc5C[C@H]4CN4CCOCC4)cc3C2)cc1 [Example 126, 4-Ethylphenyl 6-{1-[(4-hydroxyphenyl)(methyl)carbamoyl]-5,6,7,8-tetrahydroindolizin-3-yl}-7-[(3S)-3-(morpholin-4-ylmethyl)-1,2,3,4-tetrahydroisoquinoline-2-carbonyl]-1,2,3,4-tetrahydroisoquinoline-2-carboxylate]",5.9,5.2
"Cc1c(C(=O)N(C)c2ccc(O)cc2)cc(-c2cc3c(cc2C(=O)N2Cc4ccccc4C[C@H]2C)CN(C(=O)Oc2ccc(Cl)cc2)C3)n1C [Example 105, 4-Chlorophenyl 5-{4-[(4-hydroxyphenyl)(methyl)carbamoyl]-1,5-dimethyl-1H-pyrrol-2-yl}-6-[(3R)-3-methyl-1,2,3,4-tetrahydroisoquinoline-2-carbonyl]-2,3-dihydro-1H-isoindole-2-carboxylate]",7.3,31
"Cc1c(C(=O)N(C)c2ccccc2)cc(-c2cc3c(cc2C(=O)N2Cc4ccccc4C[C@H]2CN2CCOCC2)CN(C(=O)Oc2ccc(C#N)cc2)CC3)n1C [Example 152, 4-Cyanophenyl 6-{1,5-dimethyl-4-[methyl(phenyl)carbamoyl]-1H-pyrrol-2-yl}-7-[(3S)-3-(morpholin-4-ylmethyl)-1,2,3,4-tetrahydroisoquinoline-2-carbonyl]-1,2,3,4-tetrahydroisoquinoline-2-carboxylate]",6.5,29
"COc1ccc(CC(=O)N2Cc3cc(C(=O)N4Cc5ccccc5C[C@H]4C)c(-c4cc(C(=O)N(C)c5ccc(O)cc5)c5n4CCCC5)cc3C2)cc1 [Example 51, N-(4-Hydroxyphenyl)-3-{2-[2-(4-methoxyphenyl)acetyl]-6-[(3R)-3-methyl-1,2,3,4-tetrahydroisoquinoline-2-carbonyl]-2,3-dihydro-1H-isoindol-5-yl}-N-methyl-5,6,7,8-tetrahydroindolizine-1-carboxamide]",5.5,23
"CN(C(=O)c1cc(-c2cc3c(cc2C(=O)N2Cc4ccccc4C[C@H]2CN2CCOCC2)CN(C(=O)Nc2ccccc2)CC3)n2c1CCCC2)c1ccc(O)cc1 [Example 77, 6-{1-[(4-Hydroxyphenyl)(methyl)carbamoyl]-5,6,7,8-tetrahydroindolizin-3-yl}-7-[(3S)-3-(morpholin-4-ylmethyl)-1,2,3,4-tetrahydroisoquinoline-2-carbonyl]-N-phenyl-1,2,3,4-tetrahydroisoquinoline-2-carboxamide]",4,84
"CN(C(=O)c1cc(-c2cc3c(cc2C(=O)N2Cc4ccccc4C[C@H]2CN2CCOCC2)CN(C(=O)COc2ccccc2)C3)n2c1CCCC2)c1ccc(O)cc1 [Example 156, N-(4-Hydroxyphenyl)-N-methyl-3-{6-[(3S)-3-(morpholin-4-ylmethyl)-1,2,3,4-tetrahydroisoquinoline-2-carbonyl]-2-(2-phenoxyacetyl)-2,3-dihydro-1H-isoindol-5-yl}-5,6,7,8-tetrahydroindolizine-1-carboxamide]",6.8,121
"C[C@@H]1Cc2ccccc2CN1C(=O)c1cc2c(cc1-c1cc(C(=O)N(C)c3ccc(O)cc3)c3n1CCCC3)CN(C(=O)N(C)c1ccccc1)C2 [Example 82, 5-{1-[(4-Hydroxyphenyl)(methyl)carbamoyl]-5,6,7,8-tetrahydroindolizin-3-yl}-N-methyl-6-[(3R)-3-methyl-1,2,3,4-tetrahydroisoquinoline-2-carbonyl]-N-phenyl-2,3-dihydro-1H-isoindole-2-carboxamide]",17,> 150
"Cc1c(C(=O)N(C)c2ccccc2)cc(-c2cc3c(cc2C(=O)N2Cc4ccccc4C[C@H]2C)CN(C(=O)Cc2ccccc2)CC3)n1C [Example 118, N,1,2-Trimethyl-5-{7-[(3R)-3-methyl-1,2,3,4-tetrahydroisoquinoline-2-carbonyl]-2-(2-phenylacetyl)-1,2,3,4-tetrahydroisoquinolin-6-yl}-N-phenyl-1H-pyrrole-3-carboxamide]",3.4,43
"Cc1c(C(=O)N(C)c2ccc(O)cc2)cc(-c2cc3c(cc2C(=O)N2Cc4ccccc4C[C@H]2CCN2CCOCC2)CN(C(=O)Cc2ccccc2)CC3)n1C [Example 779, N-(4-Hydroxyphenyl)-N,1,2-trimethyl-5-{7-[(3S)-3-[2-(morpholin-4-yl)ethyl]-1,2,3,4-tetrahydroisoquinoline-2-carbonyl]-2-(2-phenylacetyl)-1,2,3,4-tetrahydroisoquinolin-6-yl}-1H-pyrrole-3-carboxamide]",2.9,24
"Cc1c(C(=O)N(C)c2ccc(O)cc2)cc(-c2cc3c(cc2C(=O)N2Cc4ccccc4C[C@H]2C)CN(C(=O)Cc2ccc4c(c2)OCO4)C3)n1C [Example 172, 5-{2-[2-(2H-1,3-Benzodioxol-5-yl)acetyl]-6-[(3R)-3-methyl-1,2,3,4-tetrahydroisoquinoline-2-carbonyl]-2,3-dihydro-1H-isoindol-5-yl}-N-(4-hydroxyphenyl)-N,1,2-trimethyl-1H-pyrrole-3-carboxamide]",3.4,28
"Cc1c(C(=O)N(C)c2ccc(O)cc2)cc(-c2cc3c(cc2C(=O)N2Cc4ccccc4C[C@H]2CN2CCOCC2)CN(C(=O)Cc2ccccc2)CC3)n1C [Example 89, N-(4-Hydroxyphenyl)-N,1,2-trimethyl-5-{7-[(3S)-3-(morpholin-4-ylmethyl)-1,2,3,4-tetrahydroisoquinoline-2-carbonyl]-2-(2-phenylacetyl)-1,2,3,4-tetrahydroisoquinolin-6-yl}-1H-pyrrole-3-carboxamide]",3.5,24
"CCN1CCc2cc(-c3cc(C(=O)N(C)c4ccc(O)cc4)c4n3CCCC4)c(C(=O)N3Cc4ccccc4C[C@H]3C)cc2C1 [Example 57, 3-{2-Ethyl-7-[(3R)-3-methyl-1,2,3,4-tetrahydroisoquinoline-2-carbonyl]-1,2,3,4-tetrahydroisoquinolin-6-yl}-N-(4-hydroxyphenyl)-N-methyl-5,6,7,8-tetrahydroindolizine-1-carboxamide]",65,1250
"Cc1c(C(=O)N(C)c2ccc(O)cc2)cc(-c2cc3c(cc2C(=O)N2Cc4ccccc4C[C@H]2CN2CCOCC2)CN(C(=O)COc2ccccc2)C3)n1C [Example 159, N-(4-Hydroxyphenyl)-N,1,2-trimethyl-5-{6-[(3S)-3-(morpholin-4-ylmethyl)-1,2,3,4-tetrahydroisoquinoline-2-carbonyl]-2-(2-phenoxyacetyl)-2,3-dihydro-1H-isoindol-5-yl}-1H-pyrrole-3-carboxamide]",8.5,163
